Patent US5283247A, “Anticonvulsant substituted quinazolones” (Research Corporation Technologies, Inc., priority 1992, dated 1994)

How the values were obtained:
[1] = cited from earlier work
[2] = 24 hour mortality / toxicity in mice after test compound and pentylenetetrazol; type: in vivo, male mice (Swiss-Webster); conditions: for 24 Hour Mortality: 100 mg/kg ip, 24 hours after pentylenetetrazol injection, groups of 10; for toxicity at the effective dosage: Example 6, 100 mg/kg ip
Procedure: (§1) The mice were divided in groups of 10, keeping the group weights equal as far as possible. The quinazolones shown in Table 2 as well as methaqualone were injected ip (100 mg/kg) in a 5% aqueous suspension of gum acacia to one group of 10 animals. One hour after the administration of quinazolones, the mice were injected with pentylenetetrazol (90 mg/kg) sc under the loose skin of the back. […] The mice were then observed for the following 60 minutes for the occurrence of seizures. One episode of clonic spasm which persisted for a minimum period of 5 seconds was considered a threshold convulsion. Transient intermittent jerks or tremulousness were not taken into account. Animals devoid of even a threshold convulsion during the period of 60 minutes were considered protected. […] Mortality was recorded 24 hours after the pentylenetetrazol injection. After the injection of test compounds, behavioral observations were also made. […] 2 and compound no.

[3] = pentylenetetrazol (90 mg/kg sc) induced seizures in mice, percent protection; type: in vivo, male mice (Swiss-Webster); conditions: for Percent Protection: 100 mg/kg ip, pentylenetetrazol 90 mg/kg sc one hour later, observed 60 minutes (Table 3); for Percent Protection / protection against pentylenetetrazol seizures: mice; for Percent Protection against pentylenetetrazol (dose response): pentylenetetrazol 90 mg/kg s.c. given 1 hour after; for Percent Protection against pentylenetetrazol (time response): pentylenetetrazol 90 mg/kg s.c.; for protection against pentylenetetrazol seizures: Example 6, 100 mg/kg ip
Procedure: as §1
(§2) Dose response and time response studies were performed with compound no. 2 by injecting it into a group of 10 male Swiss-Webster mice. In addition, a group of 10 male ICR mice were injected with different dosages of compound no. 2 to determine the approximate LD50.

[4] = reference 3; cited from earlier work
approximate LD50 in mice = conditions: mouse, in vivo, ip; male ICR mice, observed 24 hours
Procedure: as §2
Approximate LD50 was determined in male ICR mice.

[5] = behavioral observations / gross CNS effects in mice; type: in vivo, male mice (Swiss-Webster); conditions: 100 mg/kg ip, after injection of test compounds
Procedure: The mice were divided in groups of 10, keeping the group weights equal as far as possible. The quinazolones shown in Table 2 as well as methaqualone were injected ip (100 mg/kg) in a 5% aqueous suspension of gum acacia to one group of 10 animals. One hour after the administration of quinazolones, the mice were injected with pentylenetetrazol (90 mg/kg) sc under the loose skin of the back. […] The mice were then observed for the following 60 minutes for the occurrence of seizures. One episode of clonic spasm which persisted for a minimum period of 5 seconds was considered a threshold convulsion. Transient intermittent jerks or tremulousness were not taken into account. Animals devoid of even a threshold convulsion during the period of 60 minutes were considered protected. […] Mortality was recorded 24 hours after the pentylenetetrazol injection. After the injection of test compounds, behavioral observations were also made.

[6] = pentylenetetrazol-induced seizure in rats; type: in vivo; conditions: 50 mg/kg orally
Procedure: (§3) Compound No. 2 was also tested in rats. Four rats were treated with compound no. 2 at a dosage of 50 mg/kg orally. Anticonvulsant effects of compound no. […] The toxic symptoms were also observed. It can be seen from this table that compound no.

[7] = therapeutic index compared with methaqualone; conditions: conclusion from Examples 6, 7 and 8
[8] = Maximal Electric Shock (MES) seizure in mice; type: in vivo; conditions: 30 mg/kg ip in mice
Procedure: In addition, compound no. 2 was also tested against Maximal Electric Shock (MES) seizure. Compound no.
(§4) Maximal electroshock seizures were elicited with a 60 cycle alternating current of 50mA intensity (5-7 times that necessary to elicit minimal electroshock seizures) delivered for 0.2 seconds via corneal electrodes. A drop of 0.9% saline was instilled in the eye prior to application of the electrodes in order to […]. Abolition of the hind limb tonic extension component of the seizure was defined as protection.

[9] = maximal electric shock seizures (MES) in rats; type: in vivo; conditions: 50 mg/kg orally
Procedure: as §3, §4

toxic symptoms in rats = type: in vivo; conditions: 50 mg/kg orally
Procedure: as §3

Cc1ccccc1-n1c(C)nc2ccccc2c1=O [Compound 1, 2-methyl-3-o-tolyl-4-quinazolone]
abuse potential ([1]; in vivo): high abuse potential
24 Hour Mortality [2]: 0
Percent Protection [3]: 100%
metabolism in the body [4]: metabolized in the body to the N^1 -oxide of the compound

Cc1cccnc1-n1c(C)nc2ccccc2c1=O [Compound 2, 2-Methyl-3-(3-methyl-2-pyridyl)-4-quinazolone]
LD50 at 24 h (approximate LD50 in mice): ~1000 mg/kg
Behavioral Observations [5]: mild sedation
24 Hour Mortality [2]: 0
toxicity at the effective dosage [2]: did not exhibit any toxicity
Percent protection against pentylenetetrazol ([6]; 0.25 Hr., three rats): 33.3%
Percent protection against pentylenetetrazol ([6]; 0.5 Hr., four rats): 75%
Percent protection against pentylenetetrazol ([6]; 1 Hr., four rats): 25%
Percent protection against pentylenetetrazol ([6]; 4 Hr., four rats): 25%
protection against pentylenetetrazol-induced seizure ([6]; all time periods, Example 8): protected against both MES and pentylenetetrazol-induced seizure at all time periods
therapeutic index versus methaqualone [7]: higher therapeutic indices than methaqualone
protection against MES [8]: 100%
Percent Protection against pentylenetetrazol (dose response) ([3]; 40 mg/kg i.p.): 20%
Percent Protection against pentylenetetrazol (dose response) ([3]; 60 mg/kg i.p.): 80%
Percent Protection against pentylenetetrazol (dose response) ([3]; 80 mg/kg i.p.): 90%
Percent Protection against pentylenetetrazol (dose response) ([3]; 100 mg/kg i.p.): 100%
Percent Protection [3]: 100%
Percent Protection against pentylenetetrazol (time response) ([3]; 1 hr after injection, 100 mg/kg i.p.): 100%
Percent Protection against pentylenetetrazol (time response) ([3]; 2 hr after injection, 100 mg/kg i.p.): 60%
Percent Protection against pentylenetetrazol (time response) ([3]; 3 hr after injection, 100 mg/kg i.p.): 0%
Percent Protection against pentylenetetrazol (time response) ([3]; 4 hr after injection, 100 mg/kg i.p.): 0%
protection against pentylenetetrazol seizures [3]: 100%
Percent protection against MES ([9]; 0.25 Hr.): 75%
Percent protection against MES ([9]; 0.5 Hr.): 50%
Percent protection against MES ([9]; 1 Hr.): 75%
Percent protection against MES ([9]; 2 Hr.): 50%
Percent protection against MES ([9]; 4 Hr.): 25%
protection against MES ([9]; all time periods, Example 8): protected against both MES and pentylenetetrazol-induced seizure at all time periods
Toxicity in percent rats (toxic symptoms in rats; 0.25 Hr.): 0%
Toxicity in percent rats (toxic symptoms in rats; 0.5 Hr.): 0%
Toxicity in percent rats (toxic symptoms in rats; 1 Hr.): 0%
Toxicity in percent rats (toxic symptoms in rats; 2 Hr.): 0%
Toxicity in percent rats (toxic symptoms in rats; 4 Hr.): 0%
toxic symptoms (toxic symptoms in rats; rats, all time periods, Example 8): without exhibiting any toxic symptoms

Cc1ccccc1-n1c(C)nc2cc(N)ccc2c1=O [Compound 14, 2-Methyl-3-o-tolyl-7-amino-4-quinazolone]
Behavioral Observations [5]: none
24 Hour Mortality [2]: 0
toxicity at the effective dosage [2]: did not exhibit any toxicity
therapeutic index versus methaqualone [7]: higher therapeutic indices than methaqualone
Percent Protection [3]: 100%
protection against pentylenetetrazol seizures [3]: 100%

Cc1nc2ccccc2c(=O)n1-c1ccccc1C(F)(F)F [2-methyl-3-(2-trifluoromethylphenyl)-4-quinazolone]
sedative effect compared with methaqualone ([1]; reference 4): better sedative effect
toxicity compared with methaqualone ([1]; reference 4): lower toxicity
